Legend:
PAH patients = assay: 22-week randomized, double-blind, placebo-controlled study (Example 8); assay type: in vivo, human
Protocol: A 22-week randomized, double-blind, placebo-controlled study with a dose titration period of up to 9 weeks was conducted. Sixty-one patients were randomized 2:1 Compound 1 to placebo. Right Heart Catheterization (RHC) measurements were obtained prior to study Day 1 of the dose titration period and at Week 22. The following values were obtained and recorded: pulmonary artery pressure (PAP) (systolic, diastolic, and mean), heart rate (HR), right atrial pressure (RAP), pulmonary capillary wedge pressure (PCWP) right ventricular pressure (RVP) and cardiac output (CO), pulmonary vascular resistance (PVR), arterial and mixed venous oxygen saturation […] (if applicable). Systemic vascular resistance (SVR) was estimated from blood pressure measurements. The 6-minute walk test (6MWD) was conducted according to the modified guidelines issued by the American Thoracic Society. See Am J Respir Crit Care Med 166:111-117, 2002.
Primary efficacy endpoints for the study were: a) change from baseline in PVR after 22 weeks of treatment, and b) change from baseline in 6MWD after 22 weeks of treatment.
Compound 1 was administered as a capsule in 0.01, 0.02, 0.03, 0.04, and 0.10 mg dose strengths. The formulation was supplied as a liquid-filled, size 4, hard-gelatin capsule containing Compound 1, polyoxyl 40 hydrogenated castor oil (Kolliphor® RH40) NF, butylated hydroxytoluene (BHT)NF, and colloidal silicon dioxide NF.
The starting dose of Compound 1 was 0.01 mg twice daily. The dose of Compound 1 was titrated according to patient tolerability. If the initial dose was tolerated (0.01 mg twice daily), then the dose was increased once a week in the following fashion: 0.02 mg twice daily, 0.03 mg twice daily, 0.04 mg twice daily, 0.06 mg twice daily, 0.08 mg, 0.1 mg twice daily, 0.2 mg twice daily and 0.3 mg twice daily. The dose was optionally escalated to a possible maximum total daily dose of 0.6 mg (0.3 mg twice daily), pending tolerability. […] Compound 1 daily maintenance doses were titrated as high as 0.6 mg, and the most common dose was 0.4 mg.
Subjects received concomitant oral disease-specific PAH therapy only if the dose remained stable for at least 3 months prior to the start of screening. This therapy consisted of the following: ERA and/or an agent acting on the NO pathway including the following: a PDE-5 inhibitor and a sGC stimulator. Subjects were instructed to continue the same dose and regimen of these medications for the duration of the study.

[1] = Open-label multiple-dose escalation pharmacokinetic study in fasted or fed healthy subjects (Example 7 B); assay type: in vivo, human
Protocol: B. A second open-label, non-randomized pharmacokinetic study was conducted in healthy subjects. Fasted (cohort 1; n=19) or fed state (cohort 2, n=18) subjects received a modified-release tablet formulation of Compound 1 in a dose escalation sequence over 25 days ([…], depending upon individual subject tolerability, […]).
Two cohorts were enrolled to ensure data in 12 evaluable subjects per cohort. […]

Plasma half-life = assay type: in vivo
[2] = modified-release tablet once daily

mean pre-dose and 4 hours post-dose plasma concentrations (PAH patients; during the 9-week dose titration period (FIG. 15)): continued to rise | mean steady-state pre-dose and 4-hours post-dose plasma concentrations (PAH patients; throughout the 13-week maintenance period (FIG. 15)): maintained | accumulation index (AUC(0-24)) ([1]; 5 days of dosing at 0.60 mg, both fed and fasted state): approximately 2.1 fold | exposure in fed vs fasted state ([1]; after single administration and at steady state): similar | differences in AUC(0-24) at steady state, female vs male subjects [1, 2]: did not indicate a significant increase | increase of Cmax at steady state in female vs male subjects [1, 2]: greater than 42% | mean plasma exposure measures in females compared to males [1, 2]: Somewhat higher | plasma exposure measures vs dose ([1]; modified-release tablet once daily, 0.06 to 0.3 mg): Dose-dependent | peak-trough fluctuation ([1]; modified-release tablet once daily, across dose levels): low | effect of food on plasma exposure ([1]; modified-release tablet once daily, fed vs fasted, across dose levels): little effect of food | Tmax in the fed state ([1]; modified-release tablet, fed vs fasted): delayed | half-life (Plasma half-life): ~1440 min
Structure (SMILES): O=C(O)COC[C@H]1CC[C@H](COC(=O)N(c2ccccc2)c2ccc(Cl)cc2)CC1 [Compound 1, 2-(((1r,4r)-4-(((4-chlorophenyl)(phenyl)carbamoyloxy)methyl)cyclohexyl)methoxy)acetic acid]
correlation between plasma levels and improvements in PVR (PAH patients; 22-week study period, p=0.004 (FIG. 17)): significant correlation | increase of least-squares mean 6MWD (PAH patients; 22 weeks, not significantly different from placebo): 36.2 m | adverse events (PAH patients; PAH patients, 22-week study): consistent with other prostacyclin treatments for the management of PAH | mean reduction in BNP from baseline to Week 22 versus placebo (PAH patients; difference not significantly different): numerically greater | decrease of PVR from baseline to Week 22 (PAH patients; immediate-release capsule twice daily, titrated up to 0.6 mg total daily dose, p=0.02 vs placebo): 163.9 dyn·s·cm^−5 | correlation between PVR percentage change and dose (PAH patients; in vivo): no significant correlation | correlation between plasma levels and improvements in 6MWD (PAH patients; p=0.0037 (FIG. 18)): significant correlation | correlation between plasma levels and improvements in BNP (PAH patients; p=0.047 (FIG. 19)): significant correlation

— patent US12433865B2, “Compositions comprising PGI2-receptor agonists and processes for the preparation thereof” (Arena Pharmaceuticals, Inc., priority 2018, dated 2025)
